In paper PMC11814083, “Effect of pH and buffer on substrate binding and catalysis by cis-aconitate decarboxylase” (Scientific Reports, 2025):

Key:
Assay in all cases: HPLC of itaconate, UV […] nm, Michaelis-Menten fit
Type in all cases: biochemical
aCAD = biological target: T1, aCAD (Aspergillus terreus, UniProt B3IUN8); settings: pH 7.0, 37 °C, 50 mM MOPS, 100 mM NaCl; 95% confidence interval in brackets; other pH 5.5-7.5 also in table
T1 construct: gene cad1; aa 12-490, recombinant from E. coli, clone CAD16 (by order of listing), purified; homodimer
T1 sequence (B3IUN8 12-490): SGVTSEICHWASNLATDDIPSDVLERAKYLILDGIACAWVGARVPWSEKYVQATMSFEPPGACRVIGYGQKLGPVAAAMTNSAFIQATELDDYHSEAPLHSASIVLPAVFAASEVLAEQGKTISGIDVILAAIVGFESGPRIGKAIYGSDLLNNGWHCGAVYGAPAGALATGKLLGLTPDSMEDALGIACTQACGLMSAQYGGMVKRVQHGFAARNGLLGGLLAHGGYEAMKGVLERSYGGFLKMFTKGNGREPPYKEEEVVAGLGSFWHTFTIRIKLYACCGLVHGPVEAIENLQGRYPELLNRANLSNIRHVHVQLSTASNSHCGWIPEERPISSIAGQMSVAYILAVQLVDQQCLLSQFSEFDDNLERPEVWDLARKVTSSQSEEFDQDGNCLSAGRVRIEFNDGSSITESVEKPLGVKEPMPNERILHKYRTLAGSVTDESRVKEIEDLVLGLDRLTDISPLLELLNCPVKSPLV

mACOD1 = biological target: T2, mACOD1 (Mus musculus, UniProt P54987); settings: pH 7.0, 37 °C, 50 mM MOPS, 100 mM NaCl; 95% confidence interval in brackets; other pH 5.5-8.25 also in table
T2 construct: gene Acod1; aa 4-461, recombinant from E. coli, clone CAD39 (by order of listing), purified; homodimer
T2 sequence (P54987 4-461): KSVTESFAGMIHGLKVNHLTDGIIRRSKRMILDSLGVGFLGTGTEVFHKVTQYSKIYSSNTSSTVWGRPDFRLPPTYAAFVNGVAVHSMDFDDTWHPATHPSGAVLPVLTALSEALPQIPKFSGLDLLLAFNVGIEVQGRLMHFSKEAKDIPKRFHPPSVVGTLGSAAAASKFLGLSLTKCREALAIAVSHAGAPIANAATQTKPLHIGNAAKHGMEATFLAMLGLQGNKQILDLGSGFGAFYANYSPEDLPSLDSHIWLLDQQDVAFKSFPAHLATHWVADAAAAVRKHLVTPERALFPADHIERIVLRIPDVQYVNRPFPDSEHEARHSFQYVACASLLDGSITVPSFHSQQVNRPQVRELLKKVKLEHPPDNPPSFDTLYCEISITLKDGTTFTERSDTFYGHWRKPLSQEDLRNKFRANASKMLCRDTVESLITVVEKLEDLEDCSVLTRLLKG

hACOD1 = biological target: T3, hACOD1 (Homo sapiens, UniProt A6NK06); settings: pH 7.0, 37 °C, 50 mM MOPS, 100 mM NaCl; 95% confidence interval in brackets; other pH 5.5-8.25 also in table
T3 construct: gene ACOD1; aa 4-461, recombinant from E. coli, clone CAD29, purified; homodimer
T3 sequence (A6NK06 4-461): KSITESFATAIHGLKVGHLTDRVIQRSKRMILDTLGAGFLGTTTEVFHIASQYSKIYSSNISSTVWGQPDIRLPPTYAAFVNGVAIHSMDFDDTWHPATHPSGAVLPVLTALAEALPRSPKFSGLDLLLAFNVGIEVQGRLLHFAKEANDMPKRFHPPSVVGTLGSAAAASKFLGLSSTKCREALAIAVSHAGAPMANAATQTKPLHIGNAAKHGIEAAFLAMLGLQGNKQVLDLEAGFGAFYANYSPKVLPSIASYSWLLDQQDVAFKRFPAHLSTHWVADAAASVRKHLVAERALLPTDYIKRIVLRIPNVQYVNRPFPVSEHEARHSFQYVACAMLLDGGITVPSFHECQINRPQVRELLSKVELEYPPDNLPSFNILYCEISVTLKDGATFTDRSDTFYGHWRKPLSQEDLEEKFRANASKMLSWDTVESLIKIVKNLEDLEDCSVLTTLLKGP

SMILES: O=C(O)/C=C(/CC(=O)O)C(=O)O [cis-aconitate]
- KM (95% confidence interval) (mM) / aCAD / kcat (95% confidence interval) (s^-1) / kcat/KM (M^-1 s^-1) (aCAD): 2.1 (1.9-2.5) mM
- Michaelis constant (KM) (mACOD1): 0.17 (0.15-0.19) mM
- KM (95% confidence interval) (mM) / hACOD1 / kcat (95% confidence interval) (s^-1) / kcat/KM (M^-1 s^-1) (hACOD1): 0.23 (0.21-0.26) mM
